Reference: patent US12390437B2, “Itaconic acid derivatives and uses thereof intreating an inflammatory disease or a disease associated with an undesirable immune response” (Sitryx Therapeutics Limited, priority 2019, dated 2025)
pEC50, pIC50: −log10 of the molar value.

Experiments:
[1] = system: IL-1β cytokine output from isolated primary human monocytes; assay: Primary human monocyte AlphaLISA IL-1β cytokine assay; type: cell-based; conditions: CD14+ primary human monocytes, LPS 24 hr then Nigericin 1 hour
Procedure: Measuring Inhibitory Effects on IL-1β and IL-6 Cytokine Output from Isolated Primary Human Monocytes
The cytokine inhibition profiles of compounds of formula (IW-1) were determined in a CD14^+ isolated primary human monocyte cell assay. All assays were performed in RPMI-1640 growth medium (Gibco), supplemented with heat-inactivated fetal bovine serum (FBS) and 1% penicillin-streptomycin unless specified otherwise. The IL-1β and IL-6 cytokine inhibition assays were each run in a background of isolated primary human monocyte cells as described below. All reagents described were from Sigma-Aldrich unless specified otherwise. Compounds were prepared as 100 mM DMSO stocks.
Primary peripheral blood mononuclear cells (PBMCs) were isolated from human whole blood. Following PBMC isolation, a CD14^+ monocyte isolation step was conducted whereby CD14^+ magnetic beads (Miltenyi Biotec) were incubated for 15 minutes with the PBMC suspension that was previously treated with ice cold T-cell isolation buffer (PBS, 0.5% BSA, 2 mM EDTA). Following bead incubation, the treated cell suspension was passed through a magnetic separation column designed to positively select for magnetically labelled cells. The isolated CD14^+ monocytes were subsequently plated at the appropriate cell density for the assay, prior to compound treatment on the day of plating. Working concentrations of compounds were prepared separately in RPMI-1640 only growth medium and pre-incubated with the cells for 30 minutes (37° C./5% CO2). Following the 30 minute compound pre-incubation, primary monocytes were treated with an appropriate concentration of LPS and subsequently incubated for a 24 hr period (37° C./5% CO2). An appropriate final concentration of Nigericin was then dispensed into the primary monocyte plates and incubated for 1 hour (37° C./5% CO2) before monocyte supernatants were harvested and collected in separate polypropylene 96-well holding plates prior to commencing the AlphaLISA cytokine assay.
Reagents from each of the IL-1β and IL-6 commercial kits (Perkin Elmer) were prepared and run according to the manufacturer's instructions. Subsequently, fluorescence signal was measured in a microplate reader (EnVision® Multilabel Reader, Perkin Elmer).
Percentage inhibition was calculated per cytokine by normalising the sample data to the high and low controls used within each plate (+/−LPS respectively). Percentage inhibition was then plotted against compound concentration and the 50% inhibitory concentration (IC50) was determined from the resultant concentration-response curve.

hepatocytes [2] = assay: Hepatocyte stability assay (human); type: in vitro ADME; conditions: 10 μM compound, 0.5×10^6 cells/mL, 60 minutes
Excerpt: (§1) Defrosted cryo-preserved hepatocytes (viability >70%) are used to determine the metabolic stability of a compound via calculation of intrinsic clearance (Clint; a measure of the removal of a compound from the liver in the absence of blood flow and cell binding). Clearance data are particularly important for in vitro work as they can be used in combination with in vivo data to predict the half-life and oral bioavailability of a drug.
(§2) The metabolic stability in hepatocytes assay involves a time-dependent reaction using both positive and negative controls. The cells must be pre-incubated at 37° C. then spiked with test compound (and positive control); samples taken at pre-determined time intervals are analysed to monitor the change in concentration of the initial drug compound over 60 minutes. A buffer incubation reaction (with no hepatocytes present) acts as a negative control and two cocktail solutions, containing compounds with known high and low clearance values (verapamil/7-hydroxycoumarin and propranolol/diltiazem), act as positive controls. • 1. The assay is run with a cell concentration of 0.5×10^6 cells/mL in Leibovitz buffer. • 2. All compounds and controls are run in duplicate. • 3. Compound concentration is 10 μM. • 4. All compounds and controls are incubated with both cells and buffer to show turnover is due to hepatic metabolism. • 5. All wells on the incubation plate will have 326.7 μL of either cells or buffer added. • 6. Prior to assay, cell and buffer-only incubation plates are preincubated for 10 mins at 37° C. • 7. The assay is initiated by adding compounds, 3.3 μL of 1 mM in 10% DMSO-90% Buffer; final DMSO concentration is 0.1%. • 8. Samples are taken at regular timepoints (0, 5, 10, 20, 40, 60 min) until 60 mins. • 9. Sample volume is 40 μL and it is added to 160 μL of crash solvent (acetonitrile with internal standard) and stored on ice. • 10. At the end of the assay, the crash plates are centrifuged at 3500 rpm for 20 mins at 4° C. • 11. 80 μL of clear supernatant is removed and mixed with 80 μL of deionised water before being analysed by LC-MS/MS.
(§3) Raw LC-MS/MS data are exported to, and analysed in, Microsoft Excel for determination of intrinsic clearance. The percentage remaining of a compound is monitored using the peak area of the initial concentration as 100%. Intrinsic clearance and half-life values are calculated using a graph of the natural log of percentage remaining versus the time of reaction in minutes. Half-life (min) and intrinsic clearance (Clint in μL min^−1 10^−6 cells) values are calculated using the gradient of the graph (the elimination rate constant, k) and Equations 1 and 2.

hepatocytes [3] = assay: Hepatocyte stability assay (mouse); type: in vitro ADME; conditions: 10 μM compound, 0.5×10^6 cells/mL, 60 minutes
Excerpt: as §1, §2, §3

[4] = system: IL-1β cytokine output from THP-1s; assay: THP-1 AlphaLISA IL-1β cytokine assay; type: cell-based, human; conditions: Homo sapiens, THP-1, PMA-differentiated THP-1 cells, LPS 24 hr then Nigericin 1 hour; read-out: IL-1β (IC50)
In short: (§4)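 PMA-differentiated (72 h) THP-1 cells pretreated 30 min with compound, LPS-stimulated 24 h, then nigericin 1 h at 37 °C. Supernatant IL-1β and IL-6 by AlphaLISA; % inhibition normalised to ±LPS controls, IC50 from concentration-response curves.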

[5] = system: IL-6 cytokine output from THP-1s; assay: THP-1 AlphaLISA IL-6 cytokine assay; type: cell-based, human; conditions: Homo sapiens; PMA-differentiated THP-1 cells, LPS 24 hr then Nigericin 1 hour
In short: as §4

NQO1 = NQO1 enzyme activation assay as a readout of NRF2 activation in THP-1 cells; type: cell-based; conditions: Homo sapiens; for Emax: THP-1, percentage activation at top concentration, normalised to DMF (100%) and vehicle controls; for pEC50: differentiated THP-1 cells, LPS, 48 hr
Procedure: NQO1 Enzyme Activation Assay as a Readout of NRF2 Activation in THP-1 Cellular Background
NAD(P)H dehydrogenase [quinone] […] Induction of this gene is concomitant with the inhibition of proinflammatory cytokine transcription and suppression of the inflammatory response (Kobayashi E. H. et al., 2016). The NQO1 enzyme activation activities of compounds of formula (IW-1) were determined using a cellular based NQO1 activation assay (Abcam). The NQO1 activation assay was run in differentiated THP-1 cells (a human monocyte-like cell line) as described below. All reagents described are from Sigma-Aldrich unless specified otherwise. Compounds were prepared as 10 mM DMSO stocks.
THP-1 cells were expanded as a suspension up to 80% confluence in appropriate growth medium. Cells were harvested, suspended, treated with phorbol 12-myristate 13-acetate (PMA) and plated according to the cell density required for each plate format over a 72 hr period (37° C./5% CO2).
Following 72 hrs of THP-1 cell incubation, cellular medium was removed and replaced with fresh media. Working concentrations of compounds were prepared and pre-incubated for 30 minutes (37° C./5% CO2). Compound treatment was then applied to the PMA treated THP-1 cell plate followed by LPS treatment. A ‘low’ (DMSO vehicle only) control and ‘high’ (designated concentration of dimethyl fumarate) was applied to each plate at the point of compound treatment. Cells were subsequently incubated for a 48 hr period (37° C./5% C02) after which all NQO1 assay reagents were prepared according to the manufacturer's instructions. NQO1 extraction buffer was applied to PBS washed THP-1 cells and incubated on ice for 15 minutes to prepare THP-1 lysates for the NQO1 activity assay. THP-1 lysates were diluted 1:5 with PBS and treated with a 1:1 volume of kit prepared NQO1 Reaction Buffer. Absorbance was subsequently measured kinetically on an appropriate reader over a 6 minute period.
For activation determination, the fold change in response per well was determined by first calculating the average NQO1 activation data for the vehicle control and then dividing the individual well response by the averaged NQO1 response for the vehicle control as shown below: Fold change=(Sample value)/MeanMin Where ‘Min’=vehicle control only
The relative 50% activation concentration (EC50) was determined from the resulting fold change response curve. The maximum efficacy (Emax) was reported as the percentage activation calculated at the top concentration of compound used in the titration applied. If a full curve was unattainable preventing a correct curve fit, the Emax value was extrapolated using existing curve data. All percentage activation data were normalised to the DMF and vehicle controls, meaning the Emax represents the percentage […] achieved by a compound at a particular concentration relative to that achieved by DMF (set as the ‘High’ control and therefore representative of 100% activation).

NRF2 = NRF2 +/-GSH activation assay (DiscoverX PathHunter NRF2 translocation kit, U2OS cells); type: cell-based; conditions: Homo sapiens, GSH condition not stated in Table 5; for Emax: U2OS, normalised to dimethyl fumarate 'High' control, read-out: NRF2 activation Emax; for pEC50: U2OS PathHunter cells, 6 hours, read-out: NRF2 activation EC50
In short: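 PathHunter U2OS cells, plated 24 hrs, measured NRF2 nuclear translocation by enzyme-fragment complementation luminescence after 6 hours compound exposure at 37 °C. For +GSH, compound was pre-incubated 30 minutes with GSH (6 mM working stock). EC50 from % activation normalised to dimethyl fumarate high control.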

[6] = Mouse pharmacokinetic study, intravenous dosing; type: in vivo; conditions: male, C57BL/6, mouse, iv, plasma, 10 mg/kg i.v., read-out: Parent compound concentration following intravenous administration
In short: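 Plasma drug levels were quantified by LC-MS/MS from K2EDTA facial-vein semi-serial bleeds (N=3 per time point) in male C57BL/6 mice aged 6-8 weeks. Gavage dosing used 100 mg/kg (5% DMSO/HPMC-Tween vehicle, 5 min–24 h); tail-vein dosing used 10 mg/kg (10% DMSO/HP-β-CD vehicle, 3 min–8 h).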

[7] = Hepatocyte stability assay (human); type: in vitro ADME; conditions: cryopreserved hepatocytes, 10 μM compound, 0.5×10^6 cells/mL, 60 minutes, read-out: T½
Excerpt: as §1, §2, §3

[8] = Hepatocyte stability assay (mouse); type: in vitro ADME; conditions: cryopreserved hepatocytes, 10 μM compound, 0.5×10^6 cells/mL, 60 minutes, read-out: T½
Excerpt: as §1, §2, §3

| SMILES | pIC50 [4] | pIC50 [5] | pEC50 (NQO1) | pEC50 (NRF2) | CIint (μL min^−1 10^−6 cells) (hepatocytes [2]) | CIint (μL min^−1 10^−6 cells) (hepatocytes [3]) | Emax (NQO1) [%] | Emax (NRF2) [%] | also measured |
| --- | --- | --- | --- | --- | --- | --- | --- | --- | --- |
| C=C(CC(=O)OCCCCCCCC)C(=O)O [4-octyl itaconate, 4-Octyl itaconate, reference compound] |  |  |  |  | 401 | 351 |  |  | pIC50 [1]: < 4.00; T½ (hepatocytes [2]): 4 min; T½ (hepatocytes [3]): 4 min |
| C=C(CC(=O)OCCCCCCCC)C(=O)OCCN1CCCC1=O [Example 5, 4-octyl 1-(2-(2-oxopyrrolidin-1-yl)ethyl) 2-methylenesuccinate] | 5.19 | 5.70 | 5.23 | 5.24 |  |  | 81 | 216 |  |
| C=C(CC(=O)O[C@H]1C[C@H]2CC[C@]1(C)C2(C)C)C(=O)OCC(=O)O [Example 179, 2-((2-methylene-4-oxo-4-(((1R,2S,4R)-1,7,7-trimethylbicyclo[2.2.1]heptan-2-yl)oxy)butanoyl)oxy)acetic acid] | 4.96 |  |  |  | 13 | 129 |  |  | concentration at 0.05 h ([6]; time 0.05 h): 17900 ng/mL; concentration at 0.133 h ([6]; time 0.133 h): 5320 ng/mL; concentration at 0.25 h ([6]; time 0.25 h): 1810 ng/mL; concentration at 0.5 h ([6]; time 0.5 h): 456 ng/mL; concentration at 1 h ([6]; time 1 h): 13 ng/mL; concentration at 2 h ([6]; time 2 h): < 4 ng/mL; concentration at 4 h ([6]; time 4 h): < 4 ng/mL; concentration at 6 h ([6]; time 6 h): < 4 ng/mL; concentration at 8 h ([6]; time 8 h): < 4 ng/mL; half-life at 10 μM [7]: 129 min; half-life at 10 μM [8]: 13 min |

Continued, in another order:

| pIC50 [4] | pIC50 [5] | pEC50 (NQO1) | pEC50 (NRF2) | SMILES | CIint (μL min^−1 10^−6 cells) (hepatocytes [2]) | CIint (μL min^−1 10^−6 cells) (hepatocytes [3]) | Emax (NQO1) [%] | Emax (NRF2) [%] | also measured |
| --- | --- | --- | --- | --- | --- | --- | --- | --- | --- |
| 5.80 | 5.68 | 4.84 | 5.06 | C=C(CC(=O)OCCCCCC)C(=O)OCCS(C)(=O)=O [Example 14, 4-hexyl 1-(2-(methylsulfonyl)ethyl) 2-methylenesuccinate] |  |  | 180 | 189 |  |
| 5.25 | 5.47 | 4.70 | 4.87 | C=C(CC(=O)OCCCOc1ccccc1)C(=O)OCCS(C)(=O)=O [Example 20, 1-(2-(methylsulfonyl)ethyl) 4-(3-phenoxypropyl) 2-methylenesuccinate] |  |  | 224 | 116 |  |
| 5.77 | 5.47 | 4.78 |  | C=C(CC(=O)OCCCCCCCC)C(=O)OCCS(=O)(=O)c1ccc(C)cc1 [Example 40, 4-octyl 1-(2-tosylethyl) 2-methylenesuccinate] |  |  | 56 |  |  |
